The supplement of paper PMC12463676, “Small-molecule dissolution of stress granules by redox modulation benefits ALS models” (Nature Chemical Biology, 2025)

Columns and labels:
[1] = compound: NC(=O)CCCCC1CCSS1 [lipoamide]; experiment: thermal stability z-score vs DMSO; higher = more thermally stabilized by treatment; settings: HeLa, lipoamide concentration 100 µM
Method: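 Cellular thermal proteome profiling in HeLa cells. Cells were treated with 100 µM lipoamide for 1 h, with or without 1 mM arsenate for a further 1 h, then heated to ten temperatures (37-66.3 °C), and soluble protein was quantified by TMT mass spectrometry relative to 0.1% DMSO controls. The thermal stability score (sum of log2 fold changes minus the abundance score) was transformed to a z-score; mean of n = 3 experiments.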

[2] = compound: O=[As]([O-])(O)O.[K+] [potassium arsenate]; experiment: as above; settings: HeLa; arsenate concentration 1 mM
Method: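 Cellular thermal proteome profiling in HeLa cells treated with 1 mM arsenate for 1 h (DMSO pretreatment), heated to ten temperatures (37-66.3 °C). Soluble protein was quantified by TMT mass spectrometry relative to DMSO controls; the thermal stability score was transformed to a z-score; mean of n = 3 experiments.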

[3] = arsenate co-treatment: 1 mM arsenate 1 h
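Also: each temperature applied for 3 min, abundance score taken as mean log2 fold change at the two lowest temperatures, z-score obtained by mean subtraction and division by SD.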

NDUFB8 (UniProt O95169)
thermal stability z-score [1, 3]: 0.714 | thermal stability z-score ([1]; arsenate co-treatment: none): 1.42 | thermal stability z-score [2]: 0.119

NDUFB9 (UniProt Q9Y6M9)
thermal stability z-score [1, 3]: 0.158 | thermal stability z-score ([1]; arsenate co-treatment: none): -0.175 | thermal stability z-score [2]: -0.937

NDUFB10 (UniProt O96000)
thermal stability z-score [1, 3]: -0.509 | thermal stability z-score ([1]; arsenate co-treatment: none): -0.759 | thermal stability z-score [2]: 0.18

NDUFB11 (UniProt Q9NX14)
thermal stability z-score [1, 3]: 0.566 | thermal stability z-score ([1]; arsenate co-treatment: none): 0.514 | thermal stability z-score [2]: 0.94

NDUFC2 (UniProt O95298)
thermal stability z-score [1, 3]: 1.34 | thermal stability z-score ([1]; arsenate co-treatment: none): 0.996 | thermal stability z-score [2]: 2.15

NDUFS1 (UniProt P28331)
thermal stability z-score [1, 3]: 0.106 | thermal stability z-score ([1]; arsenate co-treatment: none): 0.134 | thermal stability z-score [2]: 0.842

NDUFS2 (UniProt O75306)
thermal stability z-score [1, 3]: -0.481 | thermal stability z-score ([1]; arsenate co-treatment: none): -0.617 | thermal stability z-score [2]: -0.577

NDUFS3 (UniProt O75489)
thermal stability z-score [1, 3]: -0.384 | thermal stability z-score ([1]; arsenate co-treatment: none): 0.139 | thermal stability z-score [2]: -0.466

NDUFS4 (UniProt O43181)
thermal stability z-score [1, 3]: 0.511 | thermal stability z-score ([1]; arsenate co-treatment: none): 0.477 | thermal stability z-score [2]: 0.201

NDUFS5 (UniProt O43920)
Chain of UniProt O43920 (O43920 whole entry): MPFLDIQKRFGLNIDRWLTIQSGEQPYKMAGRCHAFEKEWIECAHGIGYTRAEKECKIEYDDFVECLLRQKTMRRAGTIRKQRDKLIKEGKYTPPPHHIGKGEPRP
thermal stability z-score [1, 3]: -0.473 | thermal stability z-score ([1]; arsenate co-treatment: none): -0.963 | thermal stability z-score [2]: 0.133

NDUFS6 (UniProt O75380)
thermal stability z-score [1, 3]: -0.253 | thermal stability z-score ([1]; arsenate co-treatment: none): 0.123 | thermal stability z-score [2]: -0.244

NDUFS7 (UniProt O75251)
Chain of UniProt O75251 (O75251 whole entry): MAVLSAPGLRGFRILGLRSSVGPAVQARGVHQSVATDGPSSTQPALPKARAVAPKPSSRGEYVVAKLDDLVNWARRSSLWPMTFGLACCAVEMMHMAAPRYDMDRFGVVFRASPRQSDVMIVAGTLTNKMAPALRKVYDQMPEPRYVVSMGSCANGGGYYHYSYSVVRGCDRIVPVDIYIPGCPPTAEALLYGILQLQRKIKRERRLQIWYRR
thermal stability z-score [1, 3]: 0.142 | thermal stability z-score ([1]; arsenate co-treatment: none): 0.157 | thermal stability z-score [2]: 0.149

NDUFS8 (UniProt O00217)
thermal stability z-score [1, 3]: -0.474 | thermal stability z-score ([1]; arsenate co-treatment: none): -0.512 | thermal stability z-score [2]: -0.279

NDUFV1 (UniProt P49821)
Chain of UniProt P49821 (P49821 whole entry): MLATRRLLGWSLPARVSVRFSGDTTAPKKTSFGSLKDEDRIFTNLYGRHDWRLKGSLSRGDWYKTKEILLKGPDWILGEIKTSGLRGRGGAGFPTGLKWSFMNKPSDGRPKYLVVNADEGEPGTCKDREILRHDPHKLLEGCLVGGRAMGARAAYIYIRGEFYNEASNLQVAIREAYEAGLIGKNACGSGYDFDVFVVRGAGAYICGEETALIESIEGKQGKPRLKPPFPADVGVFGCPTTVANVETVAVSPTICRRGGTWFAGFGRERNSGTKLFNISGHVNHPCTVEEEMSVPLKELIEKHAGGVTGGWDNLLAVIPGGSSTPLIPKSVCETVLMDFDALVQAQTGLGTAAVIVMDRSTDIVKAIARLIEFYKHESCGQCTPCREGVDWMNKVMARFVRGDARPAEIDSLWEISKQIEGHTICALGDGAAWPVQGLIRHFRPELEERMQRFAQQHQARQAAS
thermal stability z-score [1, 3]: 0.281 | thermal stability z-score ([1]; arsenate co-treatment: none): 0.0892 | thermal stability z-score [2]: 0.585

NDUFV2 (UniProt P19404)
thermal stability z-score [1, 3]: 0.418 | thermal stability z-score ([1]; arsenate co-treatment: none): -0.0827 | thermal stability z-score [2]: 0.966

NDUFV3 (UniProt P56181)
Chain of UniProt P56181 (P56181 whole entry): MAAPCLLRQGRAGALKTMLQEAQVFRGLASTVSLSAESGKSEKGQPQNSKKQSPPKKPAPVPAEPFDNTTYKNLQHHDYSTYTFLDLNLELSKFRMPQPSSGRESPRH
thermal stability z-score [1, 3]: 0.238 | thermal stability z-score ([1]; arsenate co-treatment: none): 0.504 | thermal stability z-score [2]: -0.157

NECAP1 (UniProt Q8NC96)
thermal stability z-score [1, 3]: 0.133 | thermal stability z-score ([1]; arsenate co-treatment: none): 0.451 | thermal stability z-score [2]: -0.194

NECAP2 (UniProt Q9NVZ3)
Chain of UniProt Q9NVZ3 (Q9NVZ3 whole entry): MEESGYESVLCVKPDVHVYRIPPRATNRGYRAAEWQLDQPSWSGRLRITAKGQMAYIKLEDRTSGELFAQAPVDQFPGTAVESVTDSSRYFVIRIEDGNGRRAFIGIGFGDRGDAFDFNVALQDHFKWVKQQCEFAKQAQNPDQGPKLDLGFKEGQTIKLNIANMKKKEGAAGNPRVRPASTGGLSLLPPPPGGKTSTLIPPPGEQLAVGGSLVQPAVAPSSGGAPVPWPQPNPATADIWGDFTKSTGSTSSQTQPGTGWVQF
thermal stability z-score [1, 3]: 0.16 | thermal stability z-score ([1]; arsenate co-treatment: none): -0.169 | thermal stability z-score [2]: -0.238

NECTIN2 (UniProt Q92692)
Chain of UniProt Q92692 (Q92692 whole entry): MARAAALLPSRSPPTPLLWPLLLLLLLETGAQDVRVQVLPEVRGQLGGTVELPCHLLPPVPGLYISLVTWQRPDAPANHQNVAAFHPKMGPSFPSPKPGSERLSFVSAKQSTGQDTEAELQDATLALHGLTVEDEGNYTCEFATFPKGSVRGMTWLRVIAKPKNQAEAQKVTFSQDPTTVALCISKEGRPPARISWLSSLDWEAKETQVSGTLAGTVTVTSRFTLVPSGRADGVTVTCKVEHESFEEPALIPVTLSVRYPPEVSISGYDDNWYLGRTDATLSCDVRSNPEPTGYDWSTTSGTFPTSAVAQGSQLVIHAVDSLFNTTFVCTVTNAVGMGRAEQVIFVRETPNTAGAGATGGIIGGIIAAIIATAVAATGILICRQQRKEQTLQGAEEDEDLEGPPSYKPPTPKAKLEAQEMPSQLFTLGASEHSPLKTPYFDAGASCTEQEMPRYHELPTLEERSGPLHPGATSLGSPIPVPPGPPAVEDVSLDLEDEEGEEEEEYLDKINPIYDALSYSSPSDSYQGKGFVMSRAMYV
thermal stability z-score [1, 3]: 0.434 | thermal stability z-score ([1]; arsenate co-treatment: none): 0.196 | thermal stability z-score [2]: 0.0945

NECTIN3 (UniProt Q9NQS3)
thermal stability z-score [1, 3]: -0.126 | thermal stability z-score ([1]; arsenate co-treatment: none): -0.303 | thermal stability z-score [2]: 0.432

NEDD1 (UniProt Q8NHV4)
Chain of UniProt Q8NHV4 (Q8NHV4 whole entry): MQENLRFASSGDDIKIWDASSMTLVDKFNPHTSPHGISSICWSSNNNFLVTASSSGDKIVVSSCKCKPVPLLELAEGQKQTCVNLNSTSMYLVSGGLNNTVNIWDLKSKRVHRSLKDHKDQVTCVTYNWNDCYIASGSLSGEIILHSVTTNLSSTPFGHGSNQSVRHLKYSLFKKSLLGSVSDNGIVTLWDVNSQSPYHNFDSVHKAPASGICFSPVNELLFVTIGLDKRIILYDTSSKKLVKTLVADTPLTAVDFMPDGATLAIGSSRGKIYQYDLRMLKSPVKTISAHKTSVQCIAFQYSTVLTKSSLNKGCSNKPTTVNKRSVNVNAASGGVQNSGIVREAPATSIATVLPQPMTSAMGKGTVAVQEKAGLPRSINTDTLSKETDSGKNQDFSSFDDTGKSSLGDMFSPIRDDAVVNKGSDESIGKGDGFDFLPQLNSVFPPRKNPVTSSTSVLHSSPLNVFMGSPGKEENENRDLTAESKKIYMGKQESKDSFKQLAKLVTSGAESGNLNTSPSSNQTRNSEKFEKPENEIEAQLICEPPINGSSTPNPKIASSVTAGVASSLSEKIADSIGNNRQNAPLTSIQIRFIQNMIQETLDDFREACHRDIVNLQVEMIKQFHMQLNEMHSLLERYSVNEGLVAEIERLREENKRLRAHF
thermal stability z-score [1, 3]: 0.124 | thermal stability z-score ([1]; arsenate co-treatment: none): 0.153 | thermal stability z-score [2]: 0.216

NEDD4 (UniProt P46934)
Chain of UniProt P46934 (P46934 whole entry): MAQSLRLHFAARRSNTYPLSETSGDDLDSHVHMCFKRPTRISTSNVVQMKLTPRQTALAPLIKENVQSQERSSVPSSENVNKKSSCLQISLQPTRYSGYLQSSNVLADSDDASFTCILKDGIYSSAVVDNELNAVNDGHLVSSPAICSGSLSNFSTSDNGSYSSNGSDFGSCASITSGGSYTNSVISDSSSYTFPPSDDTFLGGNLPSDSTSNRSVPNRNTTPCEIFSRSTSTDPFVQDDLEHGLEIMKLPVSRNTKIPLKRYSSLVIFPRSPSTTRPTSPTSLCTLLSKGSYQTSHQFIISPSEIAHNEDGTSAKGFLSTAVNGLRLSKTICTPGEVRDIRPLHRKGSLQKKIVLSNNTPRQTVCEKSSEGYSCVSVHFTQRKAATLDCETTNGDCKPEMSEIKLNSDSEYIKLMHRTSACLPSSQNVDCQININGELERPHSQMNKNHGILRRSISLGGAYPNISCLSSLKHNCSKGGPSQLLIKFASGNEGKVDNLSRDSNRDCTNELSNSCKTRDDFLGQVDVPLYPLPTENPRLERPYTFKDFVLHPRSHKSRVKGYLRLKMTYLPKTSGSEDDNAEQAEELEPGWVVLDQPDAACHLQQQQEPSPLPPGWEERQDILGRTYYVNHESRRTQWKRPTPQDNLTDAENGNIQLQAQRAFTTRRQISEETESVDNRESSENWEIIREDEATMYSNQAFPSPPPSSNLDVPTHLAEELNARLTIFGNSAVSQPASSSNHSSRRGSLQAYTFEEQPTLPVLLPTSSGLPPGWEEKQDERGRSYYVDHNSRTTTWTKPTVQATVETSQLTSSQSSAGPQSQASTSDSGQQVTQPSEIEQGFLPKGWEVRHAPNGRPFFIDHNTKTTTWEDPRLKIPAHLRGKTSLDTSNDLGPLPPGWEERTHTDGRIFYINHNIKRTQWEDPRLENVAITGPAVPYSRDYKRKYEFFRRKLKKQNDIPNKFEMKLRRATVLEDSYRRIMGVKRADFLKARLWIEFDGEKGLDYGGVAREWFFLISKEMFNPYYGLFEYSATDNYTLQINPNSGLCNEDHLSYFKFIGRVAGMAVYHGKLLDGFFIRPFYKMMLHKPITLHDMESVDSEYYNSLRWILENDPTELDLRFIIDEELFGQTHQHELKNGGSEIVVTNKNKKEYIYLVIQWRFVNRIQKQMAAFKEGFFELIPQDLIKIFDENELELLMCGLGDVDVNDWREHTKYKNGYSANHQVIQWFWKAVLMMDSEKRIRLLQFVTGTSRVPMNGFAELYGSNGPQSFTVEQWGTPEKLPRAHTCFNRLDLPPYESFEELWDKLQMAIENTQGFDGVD
thermal stability z-score [1, 3]: 0.296 | thermal stability z-score ([1]; arsenate co-treatment: none): 0.196 | thermal stability z-score [2]: -0.128

NEDD4L (UniProt Q96PU5)
thermal stability z-score [1, 3]: -0.314 | thermal stability z-score ([1]; arsenate co-treatment: none): -0.354 | thermal stability z-score [2]: 0.0653

NEFH (UniProt P12036)
thermal stability z-score [1, 3]: -0.156 | thermal stability z-score ([1]; arsenate co-treatment: none): -0.292 | thermal stability z-score [2]: 0.4

NEGR1 (UniProt Q7Z3B1)
thermal stability z-score [1, 3]: 0.758 | thermal stability z-score ([1]; arsenate co-treatment: none): -0.0845 | thermal stability z-score [2]: -0.617

NEK6 (UniProt Q9HC98)
Chain of UniProt Q9HC98 (Q9HC98 whole entry): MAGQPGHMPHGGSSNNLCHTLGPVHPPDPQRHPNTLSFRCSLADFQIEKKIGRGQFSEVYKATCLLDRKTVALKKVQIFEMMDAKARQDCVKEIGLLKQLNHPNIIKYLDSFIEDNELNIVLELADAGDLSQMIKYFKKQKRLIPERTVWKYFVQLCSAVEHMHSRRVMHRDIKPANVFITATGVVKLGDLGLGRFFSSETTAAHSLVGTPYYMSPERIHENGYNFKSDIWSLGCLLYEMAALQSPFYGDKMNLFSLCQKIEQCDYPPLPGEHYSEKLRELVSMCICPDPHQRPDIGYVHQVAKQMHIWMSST
thermal stability z-score [1, 3]: -0.181 | thermal stability z-score ([1]; arsenate co-treatment: none): -0.266 | thermal stability z-score [2]: -0.209

NEK7 (UniProt Q8TDX7)
Chain of UniProt Q8TDX7 (Q8TDX7 whole entry, looked up): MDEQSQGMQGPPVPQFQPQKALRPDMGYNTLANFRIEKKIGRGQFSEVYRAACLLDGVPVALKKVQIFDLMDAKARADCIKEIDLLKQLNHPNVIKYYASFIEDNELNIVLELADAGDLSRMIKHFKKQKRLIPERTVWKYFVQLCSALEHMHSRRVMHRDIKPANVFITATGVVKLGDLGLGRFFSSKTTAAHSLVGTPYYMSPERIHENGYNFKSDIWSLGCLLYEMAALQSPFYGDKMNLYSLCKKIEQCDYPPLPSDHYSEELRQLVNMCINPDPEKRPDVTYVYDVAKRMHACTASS
thermal stability z-score [1, 3]: -0.813 | thermal stability z-score ([1]; arsenate co-treatment: none): -0.453 | thermal stability z-score [2]: -0.53

NEK9 (UniProt Q8TD19)
thermal stability z-score [1, 3]: -0.25 | thermal stability z-score ([1]; arsenate co-treatment: none): -0.366 | thermal stability z-score [2]: 0.719

NELFA (UniProt Q9H3P2)
thermal stability z-score [1, 3]: -0.1 | thermal stability z-score ([1]; arsenate co-treatment: none): -0.0674 | thermal stability z-score [2]: -0.107

NELFB (UniProt Q8WX92)
Chain of UniProt Q8WX92 (Q8WX92 whole entry): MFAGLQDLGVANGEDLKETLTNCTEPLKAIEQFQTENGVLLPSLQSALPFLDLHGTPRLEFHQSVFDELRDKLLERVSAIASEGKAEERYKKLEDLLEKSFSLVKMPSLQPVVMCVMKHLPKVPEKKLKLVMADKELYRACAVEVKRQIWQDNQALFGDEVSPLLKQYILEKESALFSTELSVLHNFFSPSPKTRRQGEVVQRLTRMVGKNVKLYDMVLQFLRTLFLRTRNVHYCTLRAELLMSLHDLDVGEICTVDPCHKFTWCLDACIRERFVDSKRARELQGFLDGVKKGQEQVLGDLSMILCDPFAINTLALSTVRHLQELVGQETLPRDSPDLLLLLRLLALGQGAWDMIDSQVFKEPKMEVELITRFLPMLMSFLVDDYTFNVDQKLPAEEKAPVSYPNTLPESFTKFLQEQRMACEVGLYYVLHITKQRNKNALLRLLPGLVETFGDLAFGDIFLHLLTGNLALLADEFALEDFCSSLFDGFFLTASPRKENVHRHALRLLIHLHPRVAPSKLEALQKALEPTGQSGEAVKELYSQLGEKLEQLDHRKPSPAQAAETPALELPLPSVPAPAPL
thermal stability z-score [1, 3]: -0.286 | thermal stability z-score ([1]; arsenate co-treatment: none): 0.576 | thermal stability z-score [2]: -0.0666

NELFE (UniProt P18615)
thermal stability z-score [1, 3]: 0.0818 | thermal stability z-score ([1]; arsenate co-treatment: none): 0.467 | thermal stability z-score [2]: 0.293

NEMF (UniProt O60524)
thermal stability z-score [1, 3]: -0.153 | thermal stability z-score ([1]; arsenate co-treatment: none): -0.18 | thermal stability z-score [2]: 0.135

NEMP1 (UniProt O14524)
thermal stability z-score [1, 3]: -0.805 | thermal stability z-score ([1]; arsenate co-treatment: none): -0.823 | thermal stability z-score [2]: 0.154

NENF (UniProt Q9UMX5)
thermal stability z-score [1, 3]: 0.318 | thermal stability z-score ([1]; arsenate co-treatment: none): -0.406 | thermal stability z-score [2]: -0.0969

NEU1 (UniProt Q99519)
thermal stability z-score [1, 3]: -0.363 | thermal stability z-score ([1]; arsenate co-treatment: none): -0.25 | thermal stability z-score [2]: 0.921
